According to paper PMC5358776, “Insight into the mechanism of action of temporin-SHa, a new broad-spectrum antiparasitic and antibacterial agent” (PLoS ONE, 2017):
Read-outs that look alike come from different tables or passages of the source. Where no end group is shown, it is not given here.

How the values were obtained:
[1] = system: L. infantum (axenic) amastigotes; conditions: axenic amastigotes
Procedure: (§1) L. infantum axenic amastigotes were differentiated from promastigotes in MAA medium (supplemented with 20% FCS) and were grown at 37°C in 5% CO2 [23].
(§2) Antiparasitic activity was evaluated against trypanosomatids, such as Leishmania and Trypanosoma. Antileishmanial activity was determined either by a luminescence-based assay (L. infantum, L. major and L. braziliensis) or by cell counting (FACSCalibur flow cytometer, Becton-Dickinson Biosciences, Woburn, MA, USA) after staining with propidium iodide (L. tropica and L. amazonensis), as previously described [23], using promastigotes or axenic amastigotes (1.25 x 10^6 parasites/ml) in mid-log phase and 5-fold serial dilutions of synthetic temporin (50–3.1 μM, final concentrations). […] The half maximal inhibitory concentration (IC50) value was determined with GraphPad Prism 6.0 software (GraphPad Software, La Jolla, CA, USA) using a sigmoidal dose response (variable slope) curve fitting equation. The results are expressed as the means of three independent experiments performed in triplicate (luminescence-based assays) or in duplicate (cell counting-based assays).

[2] = system: Human THP-1-derived macrophages; assay: Cytotoxicity, Trypan blue staining; conditions: 1–100 μM, mean of 3 independent experiments, six replicates
Procedure: (§3) Hemolytic assays were also performed using erythrocytes obtained from fresh blood samples of Wistar male rats (Charles River Laboratories, France). The hemolytic activity was measured by incubating the peptide (1–200 μM, final concentrations) with erythrocytes (2 x 10^7 cells) in PBS (100 μl) for 1 h at 37°C, as previously described [23]. A parallel incubation in the presence of 0.1% (v/v) Triton-X100 was carried out to determine the absorbance associated with 100% hemolysis. […] For THP-1-derived macrophages, viability was determined by Trypan blue staining after incubation with peptide (1–100 μM, final concentrations). LC50 (average concentration of the peptide producing 50% cell lysis) and IC50 values were determined with GraphPad Prism 6.0 software and correspond to the mean obtained from three independent experiments carried out with three (erythrocytes, THP-1 monocytes, HepG2 and HFF cells) or six replicates (THP-1-derived macrophages).
(§4) IC50 or LC50 values were determined for the different human cells mentioned above in the cytotoxicity assays.

[3] = system: Human HepG2; conditions: MTT, 72 h, 37°C, 50–600 μM; mean of 3 independent experiments in triplicate
[4] = system: Human THP-1 monocytes; conditions: MTT, 72 h, 37°C, 1–60 μM; mean of 3 independent experiments in triplicate
[5] = system: L. amazonensis promastigotes; conditions: cell counting; mean of 3 independent experiments in duplicate
Procedure: as §1, §2

[6] = system: L. major promastigotes; conditions: mean of 3 independent experiments in triplicate
Procedure: as §1, §2

[7] = system: E. coli ATCC 25922; conditions: MH broth, 10^6 cfu/ml; mean of 3 independent experiments in triplicate
Procedure: (§5) Listeria ivanovii Li4pVS2 (kindly provided by Jean-Marc Berjeaud, Université de Poitiers, France), and Streptococcus pyogenes ATCC 19615 (ATCC) were cultured in brain heart infusion (BHI, Sigma-Aldrich) medium under the same conditions.
(§6) Activity against bacteria and yeasts was assessed with a liquid growth inhibition assay performed in 96-well microtitration plates, according to a previously described protocol [14], using mid-logarithmic phase cultures diluted in Mueller-Hinton (MH, Dominique Dutscher) broth (LB broth for E. faecalis strain and YPD medium for yeasts/fungi) to an A630 value of 0.01 (10^6 cfu/ml) and 2-fold serial dilutions of synthetic temporin (200–1 μM, final concentrations). The minimal inhibitory concentration (MIC) was determined as the mean value of three independent experiments, each performed in triplicate with negative (H2O) and positive (0.7% formaldehyde) controls.

[8] = system: K. pneumoniae ATCC 13883; conditions: MH broth, 10^6 cfu/ml; mean of 3 independent experiments in triplicate
Procedure: as §6

[9] = system: T. brucei gambiense; conditions: 96 h incubation, cell counting; mean of 3 independent experiments in duplicate
Procedure: (§7) Antiparasitic activity was evaluated against trypanosomatids, such as Leishmania and Trypanosoma. Antileishmanial activity was determined either by a luminescence-based assay (L. infantum, L. major and L. braziliensis) or by cell counting (FACSCalibur flow cytometer, Becton-Dickinson Biosciences, Woburn, MA, USA) after staining with propidium iodide (L. tropica and L. amazonensis), as previously described [23], using promastigotes or axenic amastigotes (1.25 x 10^6 parasites/ml) in mid-log phase and 5-fold serial dilutions of synthetic temporin (50–3.1 μM, final concentrations). Antitrypanosomal activity against T. brucei gambiense and T. cruzi was assessed by cell counting, similar to the L. tropica and L. amazonensis analysis, after incubation of the parasites (96 h for T. brucei gambiense and 120 h for T. cruzi) with the synthetic temporin, as previously described [23]. The half maximal inhibitory concentration (IC50) value was determined with GraphPad Prism 6.0 software (GraphPad Software, La Jolla, CA, USA) using a sigmoidal dose response (variable slope) curve fitting equation. The results are expressed as the means of three independent experiments performed in triplicate (luminescence-based assays) or in duplicate (cell counting-based assays).

[10] = system: E. faecalis ATCC 29212; conditions: LB broth, 10^6 cfu/ml; mean of 3 independent experiments in triplicate
Procedure: as §5, §6

[11] = system: L. infantum promastigotes
Procedure: as §1, §2

[12] = system: L. infantum promastigotes; conditions: 3 μM, at 180 min, HBSS
[13] = system: E. coli ML-35p; assay: Time-kill assay; assay type: cell-based, Escherichia coli; conditions: 120-min exposure, 12 μM, PBS, 10^6 cfu/ml
Procedure: Time-kill assays were performed on bacteria and Leishmania infantum promastigotes. For bacteria (E. coli ML-35p and S. aureus ST1065, 10^6 cfu/ml), assays were performed as previously described, with final temporin concentrations of 6 and 12 μM. For parasite time-kill assays, Leishmania infantum promastigotes harvested in exponential phase were washed twice (1,000 x g, 10 min) with Hank's balanced salt solution (HBSS) supplemented with 20 mM glucose and then suspended in the same buffer to a density of 2.5 x 10^6 cells/ml. This suspension (800 μl) was incubated with 200 μl of a 5X temporin solution, and parasitic death was evaluated at different times by counting parasites (FACSCalibur) after staining with 1 μg/ml propidium iodide (Molecular Probes). Negative controls were assayed without peptides. Three experiments were carried out in triplicate for bacteria or in duplicate for parasites.

[14] = system: L. ivanovii; conditions: MH broth, 10^6 cfu/ml; mean of 3 independent experiments in triplicate
Procedure: as §5, §6

[15] = system: Human erythrocytes; assay: Hemolytic assay; conditions: 1 h, 37°C, PBS, 2 x 10^7 cells; mean of 3 independent experiments in triplicate
Procedure: as §3, §4

[16] = system: L. infantum (antimony resistant) promastigotes; conditions: antimony-resistant parasites
Procedure: as §7

[17] = system: Human fibroblasts (HFF); conditions: MTT, 72 h, 37°C, 1–100 μM; mean of 3 independent experiments in triplicate
[18] = system: L. infantum (intramacrophagic) amastigotes in THP-1-derived macrophages; conditions: infected THP-1-derived macrophages, 4 days; mean of 2 experiments with six replicates
Procedure: Leishmania infantum (strain MHOM/MA/67/ITMAP-263), Leishmania major (strain MHOM/SU/73/5-ASKH), Leishmania tropica (strain MHOM/SU/74/SAFK27), Leishmania amazonensis (strain MHOM/BR/73/M2269), and Leishmania braziliensis (strain MHOM/BR/75/M2904) promastigotes (kindly provided by Francine Pratlong, Centre National de Référence des Leishmania, Montpellier, France) were cultured at 26°C in SDM-79 medium supplemented with 10% fetal calf serum (FCS, Gibco) [23]. […] L. infantum-infected human macrophages were obtained from human THP-1 monocytes, as previously described [23, 78].
Intramacrophagic leishmanicidal activity of the peptides was assessed by incubating L. infantum-infected human macrophages with 2-fold serial dilutions of peptide (50–2.5 μM, final concentrations) for 4 days, as previously described [23]. THP-1-derived macrophages were infected with promastigotes from late log phase at a density of 5 x 10^5 cells/well (ratio 10:1) in RPMI medium for 24 h at 37°C with 5% CO2. […] The results are expressed as the means of two experiments performed with six replicates.

[19] = system: S. enterica (serotype Enteritidis); conditions: MH broth, 10^6 cfu/ml; mean of 3 independent experiments in triplicate
Procedure: as §6

[20] = system: E. coli ML-35p; conditions: MH broth, 10^6 cfu/ml; mean of 3 independent experiments in triplicate
Procedure: as §5, §6

[21] = system: Gram-negative bacteria; conditions: 6 Gram-negative strains of Table 3
[22] = system: L. braziliensis promastigotes; conditions: mean of 3 independent experiments in triplicate
Procedure: as §1, §2

[23] = system: S. cerevisiae; conditions: YPD medium; mean of 3 independent experiments in triplicate
Procedure: (§8) Candida albicans ATCC 90028, Candida parapsilosis ATCC 22019 (ATCC), and Saccharomyces cerevisiae (laboratory collection) were cultured in yeast peptone dextrose (YPD, Sigma-Aldrich) medium at 30°C.
(§9) The minimal inhibitory concentration (MIC) was determined as the mean value of three independent experiments, each performed in triplicate with negative (H2O) and positive (0.7% formaldehyde) controls.

[24] = system: T. cruzi epimastigotes; conditions: 120 h incubation, cell counting; mean of 3 independent experiments in duplicate
Procedure: as §7

[25] = system: S. aureus ATCC 43300; conditions: strain resistant to methicillin and oxacillin; MH broth, 10^6 cfu/ml; mean of 3 independent experiments in triplicate
Procedure: as §5, §6

[26] = system: A. baumannii ATCC 19606; conditions: MH broth, 10^6 cfu/ml; mean of 3 independent experiments in triplicate
Procedure: as §6

[27] = system: C. albicans ATCC 90028; conditions: YPD medium; mean of 3 independent experiments in triplicate
Procedure: as §8, §9

[28] = system: Gram-positive bacteria; conditions: 7 Gram-positive strains of Table 3
[29] = system: S. pyogenes ATCC 19615; conditions: MH broth, 10^6 cfu/ml; mean of 3 independent experiments in triplicate
Procedure: as §5, §6

[30] = system: promastigotes of several species of Leishmania; conditions: read-out: IC50 (range over Leishmania species); promastigotes of L. infantum, L. major, L. amazonensis, L. braziliensis
Procedure: as §7

[31] = system: S. aureus ATCC BAA-44; conditions: multidrug-resistant strain; MH broth, 10^6 cfu/ml; mean of 3 independent experiments in triplicate
[32] = system: S. aureus ATCC 25923; conditions: MH broth, 10^6 cfu/ml; mean of 3 independent experiments in triplicate
Procedure: as §6

[33] = system: S. aureus ST1065; conditions: MH broth, 10^6 cfu/ml; mean of 3 independent experiments in triplicate
Procedure: as §6

[34] = system: C. parapsilosis ATCC 22019; conditions: YPD medium; mean of 3 independent experiments in triplicate
Procedure: as §8, §9

[35] = system: P. aeruginosa ATCC 27853; conditions: MH broth, 10^6 cfu/ml; mean of 3 independent experiments in triplicate
Procedure: as §5, §6

[36] = system: Yeasts/fungi; conditions: 3 yeast/fungal strains of Table 3
[37] = system: Rat erythrocytes; conditions: 1 h, 37°C, PBS, 2 x 10^7 cells; mean of 3 independent experiments in triplicate
Procedure: as §3, §4

Q: Which results are given for FLSGIVGMLGKLF-NH2 [SHa, temporin-SHa]?
A: IC50 [1]: 20 µM; LC50 [2]: 60 µM; IC50 [3]: 560 µM; IC50 [4]: > 60 µM; IC50 [5]: 13 µM; IC50 [6]: 13 µM; MIC [7]: 10 µM; MIC [8]: 12 µM; IC50 [9]: 14 µM; MIC [10]: 12 µM; IC50 ([11]; medium with serum, mean of 3 independent experiments in triplicate): 18 µM; IC50 ([11]; serum-free medium (values in parentheses)): 8 µM; killing [12]: 38%; killing [13]: approximately 93%; MIC [14]: 6 µM; LC50 [15]: 25 µM; IC50 [16]: 14 µM; IC50 [17]: > 100 µM; IC50 [18]: 9 µM; MIC [19]: 25 µM; MIC [20]: 10 µM; MICGM (geometric mean of the MIC values) [21]: 14.4 µM; IC50 [22]: 7 µM; MIC [23]: 12 µM; IC50 [24]: 17 µM; MIC [25]: 6 µM; MIC [26]: 6 µM; MIC [27]: 25 µM; MICGM (geometric mean of the MIC values) [28]: 6 µM; MIC [29]: 6 µM; IC50 [30]: 7 to 18 µM; MIC [31]: 6 µM; MIC [32]: 3 µM; MIC [33]: 6 µM; MIC [34]: 100 µM; MIC [35]: 50 µM; MICGM (geometric mean of the MIC values) [36]: 31.1 µM; LC50 [37]: 25 µM
